A short description of the assay: Antiproliferative activity against VEGF-stimulated HUVEC cells assessed as reduction in cell viability at 0.5 nM preincubated for 1 hr followed by addition of VEGF measured after 72 hrs by MTT assay. Format: functional. As to conditions: Homo sapiens.
As to `CC1(C)C2CC[C@H](CNC(=O)c3ccccc3Sc3ccc4c(/C=C/c5ccccn5)n[nH]c4c3)C1C2` (stereo partly drawn), the inhibition at 0.0005 µM was -19%. As to `CC(C)(NC(=O)c1ccccc1Sc1ccc2c(/C=C/c3ccccn3)n[nH]c2c1)c1ccccc1`, the inhibition at 0.0005 µM was -25%.

For the molecule `C[C@@H](CNC(=O)c1ccccc1Sc1ccc2c(/C=C/c3ccccn3)n[nH]c2c1)c1ccccc1`, the inhibition at 0.0005 µM was 3%.

As to `CNC(=O)c1cccc(NC(=O)c2ccccc2Sc2ccc3c(/C=C/c4ccccn4)n[nH]c3c2)c1`, the inhibition at 0.0005 µM was -11%.

With `Cc1cc(NC(=O)c2ccccc2Sc2ccc3c(/C=C/c4ccccn4)n[nH]c3c2)ccc1C(C)C`, the inhibition at 0.0005 µM is 6%. As to `CCOC(=O)c1c[nH]nc1NC(=O)c1ccccc1Sc1ccc2c(/C=C/c3ccccn3)n[nH]c2c1`, the inhibition at 0.0005 µM is -11%. The value for `O=C(Nc1nccc2cccnc12)c1ccccc1Sc1ccc2c(/C=C/c3ccccn3)n[nH]c2c1` was -3%; that for `O=C(NC[C@@H](O)c1ccccc1)c1ccccc1Sc1ccc2c(/C=C/c3ccccn3)n[nH]c2c1` was 2%; that for `O=C(NCc1cc(F)cc(F)c1F)c1ccccc1Sc1ccc2c(/C=C/c3ccccn3)n[nH]c2c1` was 24%. The same measure for `O=C(Nc1ccc(O)c2ccccc12)c1ccccc1Sc1ccc2c(/C=C/c3ccccn3)n[nH]c2c1`: 4%.

For the molecule `O=C(Nc1cc(F)c(F)c(F)c1)c1ccccc1Sc1ccc2c(/C=C/c3ccccn3)n[nH]c2c1`, the inhibition at 0.0005 µM was found to be 0%.

For the molecule `O=C(Nc1cc(Cl)ccc1O)c1ccccc1Sc1ccc2c(/C=C/c3ccccn3)n[nH]c2c1`, the inhibition at 0.0005 µM is -22%. Take `CC(C)OCCNC(=O)c1ccccc1Nc1ccc2c(/C=C/c3ccccn3)n[nH]c2c1`: the inhibition at 0.0005 µM was found to be 51%. With `C[C@H](NC(=O)c1ccccc1Sc1ccc2c(/C=C/c3ccccn3)n[nH]c2c1)C1CCCCC1`, the inhibition at 0.0005 µM was -12%. Regarding `O=C(Nc1ccccc1Cl)c1ccccc1Sc1ccc2c(/C=C/c3ccccn3)n[nH]c2c1`, the inhibition at 0.0005 µM is -2%. The value for `Cc1ccc(NC(=O)c2ccccc2Sc2ccc3c(/C=C/c4ccccn4)n[nH]c3c2)cc1Cl` was -11%; that for `C[N+](C)(C)NC(=O)c1ccccc1Nc1ccc2c(/C=C/c3ccccn3)n[nH]c2c1` was 8%. The same measure for `CC(C)(C)CC(C)(C)NC(=O)c1ccccc1Sc1ccc2c(/C=C/c3ccccn3)n[nH]c2c1`: 0%. With `Cc1cc(C)c(NC(=O)c2ccccc2Sc2ccc3c(/C=C/c4ccccn4)n[nH]c3c2)c(C)c1`, the inhibition at 0.0005 µM is -10%.

On to `O=C(Nc1ccc2ncsc2c1)c1ccccc1Sc1ccc2c(/C=C/c3ccccn3)n[nH]c2c1`, for which the inhibition at 0.0005 µM was -20%.

Consider `CC(O)c1cccc(NC(=O)c2ccccc2Sc2ccc3c(/C=C/c4ccccn4)n[nH]c3c2)c1` (stereo not drawn), for which the inhibition at 0.0005 µM is -32%. In the case of `C[C@@H](NC(=O)c1ccccc1Sc1ccc2c(/C=C/c3ccccn3)n[nH]c2c1)c1ccccc1`, the inhibition at 0.0005 µM came to 9%. The same measure for `Cc1cccc(NC(=O)c2ccccc2Sc2ccc3c(/C=C/c4ccccn4)n[nH]c3c2)c1`: 3%. The value for `O=C(NCc1ccco1)c1ccccc1Nc1ccc2c(/C=C/c3ccccn3)n[nH]c2c1` was 70%.

`O=C(Nc1cncc(Cl)n1)c1ccccc1Sc1ccc2c(/C=C/c3ccccn3)n[nH]c2c1`: the inhibition at 0.0005 µM worked out at 17%. Consider `Cc1ccc(F)cc1NC(=O)c1ccccc1Sc1ccc2c(/C=C/c3ccccn3)n[nH]c2c1`, for which the inhibition at 0.0005 µM is 12%. Regarding `O=C(N[C@H](CO)[C@@H](O)c1ccccc1)c1ccccc1Sc1ccc2c(/C=C/c3ccccn3)n[nH]c2c1`, the inhibition at 0.0005 µM was 10%. Take `C[C@H](CNC(=O)c1ccccc1Sc1ccc2c(/C=C/c3ccccn3)n[nH]c2c1)c1ccccc1`: the inhibition at 0.0005 µM was -9%. For the molecule `O=C(N[n+]1ccccc1)c1ccccc1Nc1ccc2c(/C=C/c3ccccn3)n[nH]c2c1`, the inhibition at 0.0005 µM worked out at 48%. With `O=C(Nc1nccnn1)c1ccccc1Sc1ccc2c(/C=C/c3ccccn3)n[nH]c2c1`, the inhibition at 0.0005 µM came out at 3%.

Take `CCCCCNC(=O)c1ccccc1Nc1ccc2c(/C=C/c3ccccn3)n[nH]c2c1`: the inhibition at 0.0005 µM is 49%. In the case of `O=C(Nc1c(F)cccc1Cl)c1ccccc1Sc1ccc2c(/C=C/c3ccccn3)n[nH]c2c1`, the inhibition at 0.0005 µM stood at 12%. Consider `O=C(N[C@@H]1CN2CC[C@H]1C2)c1ccccc1Nc1ccc2c(/C=C/c3ccccn3)n[nH]c2c1`, for which the inhibition at 0.0005 µM turned out to be 12%.

For `CCOC(=O)c1cccc(NC(=O)c2ccccc2Sc2ccc3c(/C=C/c4ccccn4)n[nH]c3c2)c1`, the inhibition at 0.0005 µM was determined as 7%. Regarding `Cc1cc(C)cc(NC(=O)c2ccccc2Sc2ccc3c(/C=C/c4ccccn4)n[nH]c3c2)c1`, the inhibition at 0.0005 µM is -4%. For `O=C(N[C@@H]1c2ccccc2C[C@@H]1O)c1ccccc1Sc1ccc2c(/C=C/c3ccccn3)n[nH]c2c1`, the inhibition at 0.0005 µM is -6%. In the case of `COC(=O)c1ccc(NC(=O)c2ccccc2Sc2ccc3c(/C=C/c4ccccn4)n[nH]c3c2)c(O)c1`, the inhibition at 0.0005 µM is -22%.

Consider `C[C@H](NC(=O)c1ccccc1Sc1ccc2c(/C=C/c3ccccn3)n[nH]c2c1)[C@H](O)c1ccccc1`, for which the inhibition at 0.0005 µM was found to be 9%. As to `CNc1ccccc1NC(=O)c1ccccc1Sc1ccc2c(/C=C/c3ccccn3)n[nH]c2c1`, the inhibition at 0.0005 µM is -2%. Take `Cc1cccc(CNC(=O)c2ccccc2Nc2ccc3c(/C=C/c4ccccn4)n[nH]c3c2)c1`: the inhibition at 0.0005 µM is 19%.

For `O=C(N[C@H](CO)[C@H](O)c1ccccc1)c1ccccc1Sc1ccc2c(/C=C/c3ccccn3)n[nH]c2c1`, the inhibition at 0.0005 µM was -1%. Regarding `Cc1nc(O)cc(NC(=O)c2ccccc2Sc2ccc3c(/C=C/c4ccccn4)n[nH]c3c2)n1`, the inhibition at 0.0005 µM is 3%.

As to `Cc1ccccc1C(=O)NNC(=O)c1ccccc1Nc1ccc2c(/C=C/c3ccccn3)n[nH]c2c1`, the inhibition at 0.0005 µM was found to be 86%. `O=C(NCc1ccc2c(c1)OCC2)c1ccccc1Sc1ccc2c(/C=C/c3ccccn3)n[nH]c2c1`: the inhibition at 0.0005 µM worked out at 14%. On to `Cc1cc(C)c(NC(=O)c2ccccc2Sc2ccc3c(/C=C/c4ccccn4)n[nH]c3c2)c(Cl)c1`, for which the inhibition at 0.0005 µM was -26%. The value for `C[C@@H](NC(=O)c1ccccc1Sc1ccc2c(/C=C/c3ccccn3)n[nH]c2c1)c1ccc2ccccc2c1` was 1%; that for `O=C(NCC12CC3CC(CC(C3)C1)C2)c1ccccc1Sc1ccc2c(/C=C/c3ccccn3)n[nH]c2c1` was 1%. Take `CC(C)(C)c1cccc(NC(=O)c2ccccc2Sc2ccc3c(/C=C/c4ccccn4)n[nH]c3c2)c1`: the inhibition at 0.0005 µM was -5%. In the case of `CC(C)ONC(=O)c1ccccc1Nc1ccc2c(/C=C/c3ccccn3)n[nH]c2c1`, the inhibition at 0.0005 µM turned out to be 35%. The value for `CCCOCCNC(=O)c1ccccc1Nc1ccc2c(/C=C/c3ccccn3)n[nH]c2c1` was 28%. Regarding `O=C(NNC(=O)c1ccccc1Nc1ccc2c(/C=C/c3ccccn3)n[nH]c2c1)c1cccnc1`, the inhibition at 0.0005 µM stood at 31%.

As to `Cc1cc(C)c(O)c(NC(=O)c2ccccc2Sc2ccc3c(/C=C/c4ccccn4)n[nH]c3c2)c1`, the inhibition at 0.0005 µM is -5%. Regarding `O=C(N[C@@H](CO)c1ccccc1)c1ccccc1Sc1ccc2c(/C=C/c3ccccn3)n[nH]c2c1`, the inhibition at 0.0005 µM was -17%.
